Experimental data from ChEMBL document CHEMBL6071133, “Discovery of novel penetrating peptides able to target human leukemia and lymphoma for enhanced PROTAC delivery” (Eur J Med Chem, 2024).

Assays:
[1] = Drug uptake in human CCRF-CEM cells assessed as membrane penetration by measuring increase in fluorescence intensity at 5 umol/L incubated for 2 hrs by flow cytometry relative to C9C; format: ADME, cell-based; details: 5 µM, dose 5 µmol/L
[2] = Drug uptake in human CCRF-CEM cells assessed as increase in fluorescence intensity at 1 to 10 uM incubated for 2 hrs by flow cytometry; format: ADME, cell-based; details: dose 1-10 µM
[3] = Drug uptake in human CCRF-CEM cells assessed as increase in fluorescence intensity at 5 umol/L measured for 60 to 240 mins by flow cytometry; format: ADME, cell-based; details: 5 µM, TDE = time-dependent effect, time 60-240 min, dose 5 µmol/L
[4] = Drug uptake in human CCRF-CEM cells assessed as increase in fluorescence intensity at 1 to 10 umol/L incubated for 2 hrs by cell imaging based fluorescence microscopic analysis; format: ADME; details: dose 1-10 µmol/L
[5] = Drug uptake in human THP-1 cells assessed as increase in fluorescence intensity at 10 umol/L incubated for 2 hrs by cell imaging based fluorescence microscopic analysis; format: ADME; details: thp-1, 2 h, 10 µM, dose 10 µmol/L
[6] = Drug uptake in human K562 cells assessed as perinuclear distribution and colocalization with nucleus at 10 umol/L incubated for 2 hrs by confocal laser microscopy; format: ADME, cell-based; details: k562, 2 h, 10 µM, dose 10 µmol/L
[7] = Drug uptake in human KU812 cells assessed as perinuclear distribution and colocalization with nucleus at 10 umol/L incubated for 2 hrs by confocal laser microscopy; format: ADME, cell-based; details: ku812, 2 h, 10 µM, dose 10 µmol/L
[8] = Drug uptake in human CCRF-CEM cells assessed as perinuclear distribution and colocalization with nucleus at 10 umol/L incubated for 2 hrs by confocal laser microscopy; format: ADME, cell-based; details: 10 µM, dose 10 µmol/L
[9] = Drug uptake in human CCRF-CEM cells assessed as increase in fluorescence intensity at 5 umol/L measured for 5 to 60 mins by flow cytometry; format: ADME, cell-based; details: 5 µM, time 5-60 min, dose 5 µmol/L

Which results are given for CC(C)C[C@@H]1NC(=O)[C@H](Cc2csc3ccccc23)NC(=O)[C@@H](Cc2ccccc2)NC(=O)[C@H](Cc2ccccc2)NC(=O)[C@H](CCCNC(=N)N)NC(=O)[C@H](CCCCN)NC(=O)[C@H](CCC(=O)O)NC(=O)[C@H](CO)NC(=O)[C@H](CCCNC(=N)N)NC1=O?
fold change (FC) [1]: 2.97; Drug uptake [2]: Dose-Dependent Effect; Drug uptake [3]: Tde; Drug uptake [4]: Active; Drug uptake [5]: Active; Drug uptake [6]: Active; Drug uptake [7]: Active; Drug uptake [8]: Active; Drug uptake [9]: Active
